This is an account of results in patent publication US4749703A, “Calcium antagonist piperazine derivatives, and compositions therefor” (Dainippon Pharmaceutical Co., Ltd., priority 1984, dated 1988).

The test system of assay [1] is spontaneously hypertensive rats (SHR). Description: Antihypertensive activity in spontaneously hypertensive rats (SHR). It counts as in vivo, male SHR (Okamoto and Aoki strain) rats. To be noted: for Peak time (time of maximum hypotensive effect): p.o.; for duration of antihypertensive activity (in words): compared with commercially available calcium antagonists. As for the experimental part: The animals used were male SHR [Okamoto and Aoki strain; cf. Jap. Circul. […] Proc. Soc. […] The other end of the cannula was exposed through the skin on the back of the neck and fixed. After 1 to 4 days, the aortic cannula was connected to a pressure transducer (produced by Nihon Koden Co., Ltd., Japan; Model MP-4T), and conscious blood pressure was measured by direct method. On the day of the experiment, the blood pressure was measured for one hour prior to dosing. The test compound, suspended in 0.5% aqueous tragacanth solution, was administered orally at a volume of 3.0 ml/kg and the blood pressure was measured continuously for 5 hours.
The changes of blood pressure are expressed by the mean pressure calculated from the values of systolic and diastolic pressure.

For assay [2], the system named is methacholine-induced ST elevation. The experiment in a line: Preventive effect on methacholine-induced ST elevation (experimental model of variant angina). In kind it is in vivo, Male SD strain rats. To be noted: i.v.; for ST elevation, administn. of M (8 μg) after administn. of test compd. (at peak time): ± S.E.; for preventive effect on the ST elevation (in words): compared with diltiazem hydrochloride. As for the experimental part: (2) Preventive effect on methacholine-induced ST elevation (effect in experimental model of variant angina)
The test was carried out according to the method of Sakai et al. [cf. J. Pharmacol. Methods, 5, 325-336 (1981)].
Male SD strain rats, weighing about 500 g, were anesthetized with 60 mg/kg (i.p.) of sodium pentobarbital. Lead II electrocardiogram was recorded. The ST elevation was produced with 8.0 μg of metacholine given into the coronary […] through the cannula inserted from the right carotid artery. The test compound, dissolved in 5% ethanol-physiological saline solution, was administered intravenously. The amplitude of ST elevation was measured by means of the computer 0.5, 5 and 10 minutes after the administration of the test compound and afterward at intervals of 10-minute. The effect of the test compound was evaluated by comparing the amplitude of ST elevation after administration of the test compound with that before the administration. Each group of 5 rats was used for each dose of the test compound.
The abbreviation M in the table represents metacholine.

For assay [3], the system named is vasopressin-induced ST depression. The experiment in a line: Preventive effect on vasopressin-induced ST depression (experimental model of angina pectoris). To be noted: for Preventive effect on ST depression, 1 hour: 1 hour following administration; for Preventive effect on ST depression, 3 hours: 3 hours following administration; for Preventive effect on ST depression, 5 hours: 5 hours following administration; for Preventive effect on ST depression, 7 hours: 7 hours following administration. Set-up: key to Preventive effect on ST depression, 7 hours / Preventive effect on ST depression, 1 hour / Preventive effect on ST depression, 5 hours / Preventive effect on ST depression, 3 hours: +: Significantly different from vehicle control (P < 0.05); -: No significant difference. In kind it is in vivo, Male Donryu strain rats. On the procedure:
(1) Preventive effect on vasopressin-induced ST depression (effect in experimental model of angina pectoris)
The test was carried out according to the method of Hatano et al. [cf. Pharmacometrics, 19, 311-317 (1980)].
Male Donryu strain rats, weighing 130-180 g, were anesthetized with 60 mg/kg (i.p.) of sodium pentobarbital. Lead II electrocardiogram was recorded. The ST depression produced with 0.2 IU/kg (i.v.) of vasopressin was recorded at intervals of a given period for 5 minutes after the administration of vasopressin. The test compound, suspended in 0.5% aqueous tragacanth solution, was administered orally 1, 3, 5 and 7 hours before the administration of vasopressin. The amplitude of ST depression was measured by means of the computer, and the data were analyzed statistically by two-dimensional analysis between the control group and the treated group to evaluate the effect of the test compound. Each group of 5 rats was used for each dose of the test compound.

[4] abbreviates: 0.3 mg/kg, * P < 0.05, ** P < 0.01.

Where a name gives a salt, the structure may show the parent alone.

For the molecule `O=C(CCCN1CCN(c2ccc(F)cc2)CC1)NC1c2ccccc2CSc2cc(F)ccc21` (centres unmarked) [Example 42, 3-fluoro-11-[4[4-(4-fluorophenyl)-1-piperazinyl]butyrylamino]-6,11-dihydrodibenzo[b,e]thiepin], the “Peak time (time of maximum hypotensive effect)” value in assay [1] (30 mg/kg) was found to be 4 h. In assay [1] (oral, 30 mg/kg), the “maximum hypotensive effect (decrease compared with the initial blood pressure)” value is recorded as 12-14% and the “time of maximum hypotensive effect” value is 4 to 5 h.

Turning to `COC(=O)C1=C(C)NC(C)=C(C(=O)OC)C1c1ccccc1[N+](=O)[O-]` [Nifedipine, reference compound], in assay [2] (0.03 mg/kg), the “peak time (preventive effect on ST elevation)” value came to 10 min and the “ST elevation, administn. of M (8 μg) after administn. of test compd. (at peak time)” value (“ST elevation, administn. of M (8 μg)” below) is recorded as “+0.17 ± 0.02 ΔmV”. For the same molecule, in assay [2] (0.1 mg/kg), the “peak time (preventive effect on ST elevation)” value came out at 20 min. Further, the “ST elevation, administn. of M (8 μg)” value in assay [2] (0.1 mg/kg, * P < 0.05) is given as “+0.08 ± 0.02 ΔmV”. Besides, the “Peak time (time of maximum hypotensive effect)” value in assay [1] (3 mg/kg) amounted to 0.5 h. Also, the “decrease compared with the initial blood pressure at 5 hours after dosing” value in assay [1] (oral) is reported as 7%. In addition, in assay [1] (oral, 3 mg/kg), the “maximum hypotensive effect (decrease compared with the initial blood pressure)” value is given as 17% and the “time of maximum hypotensive effect” value came to 0.5 h. In assay [3] (0.01 mg/kg p.o.), the “Preventive effect on ST depression, 1 hour” value (from here on “Preventive effect … 1 hour”) was “-” and the “Preventive effect on ST depression, 3 hours” value (“Preventive effect … 3 hours” below) was “-”. Further, in assay [3] (0.1 mg/kg p.o.), the “Preventive effect … 1 hour” value is on record as “+”; the “Preventive effect … 3 hours” value was “-”; the “Preventive effect on ST depression, 5 hours” value (“Preventive effect … 5 hours” for short) was “-”.

As for `COc1ccc([C@@H]2Sc3ccccc3N(CCN(C)C)C(=O)[C@@H]2OC(C)=O)cc1` [Diltiazem hydrochloride, reference compound], the “peak time (preventive effect on ST elevation)” value is given as 10 min in assay [2] (0.1 mg/kg), 10 min in assay [2] (0.3 mg/kg) and 5 min in assay [2] (1.0 mg/kg). Moreover, the “ST elevation, administn. of M (8 μg)” value in assay [2] (0.1 mg/kg, * P < 0.05) is reported as “+0.15 ± 0.03 ΔmV”; in assay [2] (setting [4]) it was “+0.06 ± 0.02 ΔmV”; in assay [2] (1.0 mg/kg, ** P < 0.01), “+0.09 ± 0.02 ΔmV”. Further, the “Peak time (time of maximum hypotensive effect)” value in assay [1] (30 mg/kg) and in assay [1] (50 mg/kg) was 0.333 h throughout. The “decrease compared with the initial blood pressure at 5 hours after dosing” value in assay [1] (oral) stood at 3%. Moreover, the “reduction of blood pressure (in words)” value in assay [1] (oral, 30 mg/kg) is recorded as “did not reduce significantly blood pressures”. Also, the “maximum effect (decrease compared with the initial blood pressure)” value in assay [1] (oral, 50 mg/kg) came out at 13%. Also, the “time of maximum effect” value in assay [1] (oral, 50 mg/kg) was found to be 20 min. For the same molecule, the entries for the “Preventive effect … 1 hour” value in assay [3] (3 mg/kg p.o.), in assay [3] (10 mg/kg p.o.) and in assay [3] (30 mg/kg p.o.) were “-”, “+” and “+”, respectively. For the same molecule, the “Preventive effect … 3 hours” value is “-” in assay [3] (3 mg/kg p.o.) and “+” in assay [3] (10 mg/kg p.o.). Also, the “Preventive effect … 5 hours” value in assay [3] (10 mg/kg p.o.) is given as “-”; in assay [3] (30 mg/kg p.o.) it was “+”. Moreover, the “Preventive effect on ST depression, 7 hours” value (shortened to “Preventive effect … 7 hours”) in assay [3] (30 mg/kg p.o.) is on record as “-”.

In the case of `Cc1ccc2c(c1)C(NC(=O)CCCN1CCN(c3ccc(F)cc3)CC1)c1ccccc1CS2` (centres unmarked) [2(1), 11-[4-[4-(4-fluorophenyl)-1-piperazinyl]butyrylamino]-2-methyl-6,11-dihydrodibenzo[b,e]thiepin], the “duration of antihypertensive activity (in words)” value in assay [1] is recorded as “longer duration of antihypertensive activity than that of the commercially available calcium antagonists”.

`Cc1ccc2c(c1)C(NC(=O)CCCN1CCN(c3ccc(F)cc3)CC1)c1ccccc1CS2` (centres unmarked) [2(3), 11-[4-[4-(4-fluorophenyl)-1-piperazinyl]butyrylamino]-2-methyl-6,11-dihydrodibenzo[b,e]thiepin]: the “peak time (preventive effect on ST elevation)” value in assay [2] (0.1 mg/kg) came out at 5 min. The “ST elevation, administn. of M (8 μg)” value in assay [2] (0.1 mg/kg, * P < 0.05) is listed as “+0.19 ± 0.05 ΔmV”. In assay [2] (0.3 mg/kg), the “peak time (preventive effect on ST elevation)” value stood at 0.5 min. Further, the “ST elevation, administn. of M (8 μg)” value in assay [2] (setting [4]) was “+0.13 ± 0.02 ΔmV”. The “preventive effect on the ST elevation (in words)” value in assay [2] is “preventive effect on the ST elevation comparable to that of diltiazem hydrochloride”. In assay [1] (30 mg/kg), the “Peak time (time of maximum hypotensive effect)” value was 4 h. Besides, in assay [1] (oral, 30 mg/kg), the “maximum hypotensive effect (decrease compared with the initial blood pressure)” value is recorded as 12-14% and the “time of maximum hypotensive effect” value lay within 4 to 5 h. For the same molecule, in assay [3] (3 mg/kg p.o.), the “Preventive effect … 1 hour” value is “-”; the “Preventive effect … 3 hours” value is “-”; the “Preventive effect … 5 hours” value is listed as “-”; the “Preventive effect … 7 hours” value is listed as “-”. In addition, in assay [3] (10 mg/kg p.o.), the “Preventive effect … 1 hour” value is “+”; the “Preventive effect … 3 hours” value is reported as “+”; the “Preventive effect … 5 hours” value is given as “+”; the “Preventive effect … 7 hours” value was “-”. Besides, in assay [3] (30 mg/kg p.o.), the “Preventive effect … 1 hour” value was “+” and the “Preventive effect … 7 hours” value is “+”. Moreover, the “preventive effect on the ST depression (in words)” value in assay [3] (p.o., compared with diltiazem hydrochloride) is reported as “more prolonged preventive effect on the ST depression than diltiazem hydrochloride”.

With `O=C(CCCN1CCN(c2ccccc2)CC1)NC1c2ccccc2CSc2ccccc21` (centres unmarked) [6(1), 11-[4-(4-phenyl-1-piperazinyl)butyrylamino]-6,11-dihydrodibenzo[b,e]thiepin], the “peak time (preventive effect on ST elevation)” value is on record as 0.5 min in assay [2] (0.1 mg/kg) and 5 min in assay [2] (0.3 mg/kg). The “ST elevation, administn. of M (8 μg)” value in assay [2] (0.1 mg/kg, * P < 0.05) is recorded as “+0.15 ± 0.05 ΔmV”; in assay [2] (setting [4]) it was “+0.07 ± 0.01 ΔmV”. In addition, the “preventive effect on the ST elevation (in words)” value in assay [2] is “preventive effect on the ST elevation comparable to that of diltiazem hydrochloride”.

As to `O=C(CCCN1CCN(c2ccc(F)cc2)CC1)NC1c2ccccc2C[S+]([O-])c2ccccc21` (single isomer, unassigned) [Example 136, 11-[4-[4-(4-fluorophenyl)-1-piperazinyl]butyrylamino]-6,11-dihydrodibenzo[b,e]thiepin-5-oxide-A], the “Peak time (time of maximum hypotensive effect)” value in assay [1] (30 mg/kg) came to 5 h. Further, in assay [1] (oral, 30 mg/kg), the “maximum hypotensive effect (decrease compared with the initial blood pressure)” value is listed as 12-14% and the “time of maximum hypotensive effect” value is 4 to 5 h.

For the molecule `O=C(CCCN1CCN(c2ccc(F)cc2)CC1)NC1c2ccccc2CSc2ccccc21` (centres unmarked) [Example 1(1), 11-[4-[4-(4-fluorophenyl)-1-piperazinyl]butyrylamino]-6,11-dihydrodibenzo[b,e]thiepin], the “duration of antihypertensive activity (in words)” value in assay [1] is listed as “longer duration of antihypertensive activity than that of the commercially available calcium antagonists”.

On to `O=C(CCCN1CCN(c2ccc(F)cc2)CC1)NC1c2ccccc2CS(=O)(=O)c2ccccc21` (centres unmarked) [Example 138, 11-[4-[4-(4-fluorophenyl)-1-piperazinyl]butyrylamino]-6,11-dihydrodibenzo[b,e]thiepin-5,5-dioxide], for which the “Peak time (time of maximum hypotensive effect)” value in assay [1] (30 mg/kg) amounted to 5 h. In assay [1] (oral, 30 mg/kg), the “maximum hypotensive effect (decrease compared with the initial blood pressure)” value is reported as 12-14% and the “time of maximum hypotensive effect” value lay in the range of 4 to 5 h.
